Test results from patent US20130109720A1, “INDOLE INHIBITORS OF CRAC” (Hoffmann-La Roche Inc., priority 2011, published 2013).

Test system: IL-2 production in Jurkat cell
Assay: Jurkat IL-2 Production Assay
Assay type: cell-based
Conditions: Homo sapiens, Jurkat cell (ATCC), PHA stimulation with 1% FBS or PMA/Ionomycin with 30% FBS (which one not stated), 18-20 h incubation
Description: Cell: Jurkat cell (ATCC) was grown in RPMI 1640 with 10% FBS and 1% penicillin/streptomycin. The cell density was kept at 1.2˜1.8×10^6/mL in culture flask before seeding into culture plate, and the cell density in the plate was 0.5×10^6/200 μL/well.
Culture media: RPMI 1640 with 1% FBS or 30% FBS for high serum assay.
Test compound: serial dilution was done in 100% DMSO, and intermediate dilution was done with RPMI 1640 medium with 1% FBS. The DMSO final concentration in culture well was 0.25%.
Stimulant: PHA (Sigma#L9017-10MG) was used for the assay with 1% FBS in culture medium, and added after 10 minutes exposure of cell to compound/DMSO. The […] final concentration in culture well was 5 μg/mL. PMA (Sigma# P-8139 5MG)/Ionomycin (Sigma# I0634-5MG) was used for the assay with 30% FBS in culture medium, and added at same time point as the 1% FBS culture assay. The final concentration of PMA was 50 ng/mL, and Ionomycin final concentration was 500 ng/mL.
Incubation: at 37° C. with 5% CO2 and 95% humidity for 18 h ˜20 h.
IC50: IC50 was calculated with the data analysis software XLfit4, General Pharmacology model 251.

## Cc1cc(S(C)(=O)=O)ncc1-c1ccc2[nH]c(-c3cncc(F)c3C)cc2c1 [Example 1, 2-(5-fluoro-4-methyl-pyridin-3-yl)-5-(6-methanesulfonyl-4-methyl-pyridin-3-yl)-1H-indole]
  IC50: 29 nM
